Results taken from patent publication US20110070552A1, “USE OF SECONDARY OPTICAL EMISSION AS A NOVEL BIOFILM TARGETING TECHNOLOGY” (NOMIR MEDICAL TECHNOLOGIES INC, priority 2003, published 2011).

Tests used:
Format in all cases: in vivo, human
[1] = system: biofilm in periodontal pocket; assay: Treatment of a recalcitrant 10 mm periodontal pocket: chromophore staining plus 830 nm diode laser hot tip; details: one patient; for periodontal pocket probing depth: baseline 10 mm pocket, 0.1% MB solution, laser 1000 mW
From the text: (§1) The laser used to exemplify the invention was a 830 nm diode laser with a power output of between 800 mW-1200 mW in the Continuous Wave mode of operation, through a 600 micron silica laser delivery fiber. The live human patients (in vivo) all presented with some advanced state of periodontal or periimplant disease and/or active infection. Presented below are data for two representative patients.
Presented as a healthy […] with a recalcitrant 10 mm periodontal pocket on the facial aspect of the maxillary canine (tooth #6) after a regular dental cleaning and scaling. In a minimally invasive procedure, the patient was anesthetized with xylocaine, and the periodontal pocket was infused with 0.1% MB solution via a small bristled brush that easily fits into the volume of the pocket. The MB solution was left for approximately 2 minutes in the area, and then surface irrigation of H2O was applied.
A […] silica fiber connected to a 830 nm dental diode laser (sold by Lumenis Technologies, Yokneam, Israel) was then activated at 1000 mW and the fiber was placed into the periodontal pocket, where it immediately came in contact with biofilm, tissue, and blood products. The tip of the fiber immediately carbonized, and became incandescent. The fiber (with the secondary quantum emissions emanating from the carbonized tip), was then moved around the three dimensional area of the periodontal pocket for a period of 30 to 45 seconds in rapid movements, never staying in one direct area for more than 1 second at a time. The area was then scaled with traditional gracey periodontal scalers (sold by Hu-Friedy Chicago, Ill.), and then irrigated with copious water. The patient was sent home with administration of 600 mg of Ibuprophen (sold by Wyeth, Madison, N.J.) analgesic given chair-side, and no antibiotics.

[2] = system: biofilm and infection around titanium implant; assay: Treatment of infected periimplant tissue: chromophore staining plus 830 nm diode laser hot tip
From the text: as §1
Presented as a brittle diabetic with an infected titanium implant and a fistula draining the infection. Radiographic appearance detailed 8 mm of lost bone, and generalized radiolucency around the medial half of the implant. […] The area was surgically opened with a conventional trapezoidal shaped flap, and the infection and biofilm effected area was bathed in a 0.1% MB solution (sold by Vista Dental Products, Racine, Wis.) for approximately 2 minutes. The area was then irrigated with copious H2O, leaving the targeted biofilm behind, and washing away excess stain. A […] silica fiber connected to an 830 nm dental diode laser was then activated at 1200 mW and the fiber was placed in contact with biofilm and blood products and immediately carbonized. […]

[3] = system: periodontal and periimplant pockets and infections; assay: Procedure performed on 50 patients in periodontal and periimplant pockets and infections; details: 50 patients in the last 24 months, 830 nm diode laser 800 mW-1200 mW CW, 600 micron fiber
From the text: as §1

Question: Which results are given for `CN(C)c1ccc2nc3ccc(=[N+](C)C)cc-3sc2c1` [Methylene Blue]?
Answer: state of the periodontal pocket ([1]; 0.1% MB solution approx. 2 minutes, laser 1000 mW 30 to 45 seconds, then scaling, eight days post-op): completely closed; periodontal pocket probing depth ([1]; at four months): 3 mm; periodontal pocket probing depth ([1]; at six weeks): 3 mm; infection status of periimplant area ([2]; one diabetic patient, 0.1% MB solution approx. 2 minutes, laser 1200 mW 60 to 90 seconds, scaling, 5 day Amoxicillin, three weeks post-op): completely free of infection; infection status of periimplant area ([2]; same patient, at 9 months): still infection free; clinical outcome [3]: successful outcomes

Question: For `Cc1cc2nc3ccc(N(C)C)cc3[s+]c2cc1N.[Cl-]` [Toludine Blue], which clinical outcome [3] is on record?
Answer: successful outcomes
